Assays:
[1] = target: T1, N-type Ca^2+ channel (Cav2.2) (Rattus norvegicus, UniProt Q02294); experiment: N-type Ca2+ channel agonist activity, whole-cell perforated patch clamp of tail currents in tsA201 cells; type: cell-based; conditions: for EC50: whole cell perforated patch clamp, deactivation (tail) currents from N-type channels, read-out: N-Type Ca^2+ Channel Activity EC50 +/− SEM
T1 construct: expressed in transfected cells; later also transient transfection
Procedure: tsA201 cells expressing calcium channels. […] For subsequent evaluation of effects on N-, P/Q-, or L-type channels, tsA-201 cells were transiently transfected with Cav2.2, Cav2.1, or Cav1.3, in combination with Cavβ3 and […] (Addgene, Cambridge Mass.) using FuGENE 6 (Life Technologies, Grand Island, N.Y.). All cells were maintained in DMEM supplemented with 10% fetal bovine serum. For the stable cell line expressing N-type channels, 25 μg/mL zeocin, 5 μg/mL blasticidin, and 25 μg/mL hygromycin were added as selection agents.
Whole-cell patch clamp recordings of calcium current. […] Briefly, the pipette solution consisted of […] Cs2SO4, 60 mM CsCl, 1 mM MgCl2, 10 mM 4-(2-hydroxyethyl)-1-piperazineethanesulfonic acid (HEPES) at pH 7.4. […] Patch pipettes were fabricated from borosilicate glass and pulled to a resistance of about 1 MΩ. Before each experiment, a stock solution consisting of 3 mg amphotericin-B dissolved into 50 μL anhydrous DMSO was made. […] Capacitive currents and passive membrane responses to voltage commands were subtracted from the data. Currents were amplified by an Axopatch 200B amplifier, filtered at 5 KHz, and digitized at 10 KHz for subsequent analysis using pClamp software (Axon Instruments/Molecular Devices; Sunnyvale, Calif.). […] To measure effects on calcium channel tail currents, the tail current integral was measured before and after application of a derivative, with the integral of each trace being normalized to its peak. All experiments were carried out at room temperature (22° C.). […] All other salts and chemicals were obtained from Sigma-Aldrich chemical company (St. Louis, Mo.).
Statistical Analysis. Statistical analysis was performed using either GraphPad Prism 5 (GraphPad Software, Inc.) or Origin 7 (OriginLab) software. For the dose-response analyses on Ca^2+ current, each concentration of the four different compounds was tested in 3-6 cells. […] All EC50 and IC50 values and their respective errors were determined by performing 100 iterations of a logistic function curve fit. Data are presented as mean±s.e.m. unless otherwise noted.

[2] = system: LEMS model NMJs; experiment: Intracellular recordings at LEMS model mouse NMJs, 13x, DAP and combination (Example 4); conditions: 50 μM 13x, […] DAP, or both
Procedure: To test this, intracellular microelectrode recordings were performed on ex vivo nerve-muscle preparations taken from LEMS passive-transfer model mice and measured the magnitude of acetylcholine released at the neuromuscular junction. The most sensitive method of quantifying the magnitude of acetylcholine released is to determine the quantal content. Quantal content is defined as the number of neurotransmitter-containing synaptic vesicles that are released from the nerve terminal during a single action potential stimulus. This value was determined by first measuring the area under the average action potential-evoked endplate potential (EPP) and then dividing this value by the area under the average single vesicle release event (miniature endplate potential; mEPP). This value could be compared between experimental groups to provide an accurate measurement of changes in the magnitude of acetylcholine released during a single action potential. Using this approach, the quantal content among five experimental conditions was compared: control NMJs, LEMS NMJs, LEMS NMJs exposed to 50 μM 13x, LEMS NMJs exposed to 1.5 μM DAP, and LEMS NMJs exposed to 50 μM 13x+1.5 μM DAP (FIG. 10). […]; EPP amplitude=10.18±0.62 mV) as compared with control serum treated mouse NMJs (QC=107.5±3.6; EPP amplitude=34.62±1.37 mV; Tarr et al., 2013). […] In fact, this 13x-mediated enhancement was very similar to what was observed after exposure of LEMS model NMJs to 1.5 μM DAP (QC=49.0±4.4; EPP amplitude=17.94±1.381 mV). […]; EPP amplitude=34.62±1.37 mV; Tarr et al., 2013). […] In summary, while either 13x or DAP alone caused about an 80% increase in transmitter release from LEMS model NMJs, the combination of 13x plus DAP caused about a 300% increase in transmitter release.

[3] = cited from earlier work
[4] = system: LEMS passive transfer mouse NMJs; experiment: Intracellular recordings at LEMS passive transfer mouse NMJs, ex vivo ETA nerve-muscle preparation (Example 3); conditions: 50 μM, mean±SD, aBC2 LEMS passive transfer NMJs
Procedure: LEMS passive transfer. To test GV-58 in a LEMS model NMJ, an established LEMS passive transfer mouse model was utilized. To perform the passive transfer of LEMS, mice were injected with the serum of patients diagnosed with LEMS. […] Each serum sample was tested for the presence of voltage-gated Ca^2+ channel antibodies using a Ca^2+ channel antibody radioimmune assay (Kronus RIA kit, Star, Id.). Control serum was obtained from the University of Pittsburgh Medical Center blood bank. […]; 25-32 g; Charles River Laboratories) were divided into two groups: one group that received LEMS serum, and a control group that received control serum.
Intracellular recordings at mouse NMJs. […] A thin upper arm muscle, the epitrochleoanconeus (ETA), was chosen for these recordings. […] […]. A train of 10 EPPs was also collected in each muscle fiber using an inter-stimulus interval of 20 msec. To analyze the data, both the amplitudes and the areas under the waveforms (integral) were determined after correcting each digitized point in each trace for non-linear summation. Data were collected and analyzed using an Axoclamp 900A and the pClamp 10 suite of programs (Molecular Devices, Sunnyvale, Calif.).
Statistical Analysis. […] For the dose-response analyses on Ca^2+ current, each concentration of the four different compounds was tested in 3-6 cells. […]. All EC50 and IC50 values and their respective errors were determined by performing 100 iterations of a logistic function curve fit.

[5] = oral administration to patients

T1 sequence (Q02294 whole entry): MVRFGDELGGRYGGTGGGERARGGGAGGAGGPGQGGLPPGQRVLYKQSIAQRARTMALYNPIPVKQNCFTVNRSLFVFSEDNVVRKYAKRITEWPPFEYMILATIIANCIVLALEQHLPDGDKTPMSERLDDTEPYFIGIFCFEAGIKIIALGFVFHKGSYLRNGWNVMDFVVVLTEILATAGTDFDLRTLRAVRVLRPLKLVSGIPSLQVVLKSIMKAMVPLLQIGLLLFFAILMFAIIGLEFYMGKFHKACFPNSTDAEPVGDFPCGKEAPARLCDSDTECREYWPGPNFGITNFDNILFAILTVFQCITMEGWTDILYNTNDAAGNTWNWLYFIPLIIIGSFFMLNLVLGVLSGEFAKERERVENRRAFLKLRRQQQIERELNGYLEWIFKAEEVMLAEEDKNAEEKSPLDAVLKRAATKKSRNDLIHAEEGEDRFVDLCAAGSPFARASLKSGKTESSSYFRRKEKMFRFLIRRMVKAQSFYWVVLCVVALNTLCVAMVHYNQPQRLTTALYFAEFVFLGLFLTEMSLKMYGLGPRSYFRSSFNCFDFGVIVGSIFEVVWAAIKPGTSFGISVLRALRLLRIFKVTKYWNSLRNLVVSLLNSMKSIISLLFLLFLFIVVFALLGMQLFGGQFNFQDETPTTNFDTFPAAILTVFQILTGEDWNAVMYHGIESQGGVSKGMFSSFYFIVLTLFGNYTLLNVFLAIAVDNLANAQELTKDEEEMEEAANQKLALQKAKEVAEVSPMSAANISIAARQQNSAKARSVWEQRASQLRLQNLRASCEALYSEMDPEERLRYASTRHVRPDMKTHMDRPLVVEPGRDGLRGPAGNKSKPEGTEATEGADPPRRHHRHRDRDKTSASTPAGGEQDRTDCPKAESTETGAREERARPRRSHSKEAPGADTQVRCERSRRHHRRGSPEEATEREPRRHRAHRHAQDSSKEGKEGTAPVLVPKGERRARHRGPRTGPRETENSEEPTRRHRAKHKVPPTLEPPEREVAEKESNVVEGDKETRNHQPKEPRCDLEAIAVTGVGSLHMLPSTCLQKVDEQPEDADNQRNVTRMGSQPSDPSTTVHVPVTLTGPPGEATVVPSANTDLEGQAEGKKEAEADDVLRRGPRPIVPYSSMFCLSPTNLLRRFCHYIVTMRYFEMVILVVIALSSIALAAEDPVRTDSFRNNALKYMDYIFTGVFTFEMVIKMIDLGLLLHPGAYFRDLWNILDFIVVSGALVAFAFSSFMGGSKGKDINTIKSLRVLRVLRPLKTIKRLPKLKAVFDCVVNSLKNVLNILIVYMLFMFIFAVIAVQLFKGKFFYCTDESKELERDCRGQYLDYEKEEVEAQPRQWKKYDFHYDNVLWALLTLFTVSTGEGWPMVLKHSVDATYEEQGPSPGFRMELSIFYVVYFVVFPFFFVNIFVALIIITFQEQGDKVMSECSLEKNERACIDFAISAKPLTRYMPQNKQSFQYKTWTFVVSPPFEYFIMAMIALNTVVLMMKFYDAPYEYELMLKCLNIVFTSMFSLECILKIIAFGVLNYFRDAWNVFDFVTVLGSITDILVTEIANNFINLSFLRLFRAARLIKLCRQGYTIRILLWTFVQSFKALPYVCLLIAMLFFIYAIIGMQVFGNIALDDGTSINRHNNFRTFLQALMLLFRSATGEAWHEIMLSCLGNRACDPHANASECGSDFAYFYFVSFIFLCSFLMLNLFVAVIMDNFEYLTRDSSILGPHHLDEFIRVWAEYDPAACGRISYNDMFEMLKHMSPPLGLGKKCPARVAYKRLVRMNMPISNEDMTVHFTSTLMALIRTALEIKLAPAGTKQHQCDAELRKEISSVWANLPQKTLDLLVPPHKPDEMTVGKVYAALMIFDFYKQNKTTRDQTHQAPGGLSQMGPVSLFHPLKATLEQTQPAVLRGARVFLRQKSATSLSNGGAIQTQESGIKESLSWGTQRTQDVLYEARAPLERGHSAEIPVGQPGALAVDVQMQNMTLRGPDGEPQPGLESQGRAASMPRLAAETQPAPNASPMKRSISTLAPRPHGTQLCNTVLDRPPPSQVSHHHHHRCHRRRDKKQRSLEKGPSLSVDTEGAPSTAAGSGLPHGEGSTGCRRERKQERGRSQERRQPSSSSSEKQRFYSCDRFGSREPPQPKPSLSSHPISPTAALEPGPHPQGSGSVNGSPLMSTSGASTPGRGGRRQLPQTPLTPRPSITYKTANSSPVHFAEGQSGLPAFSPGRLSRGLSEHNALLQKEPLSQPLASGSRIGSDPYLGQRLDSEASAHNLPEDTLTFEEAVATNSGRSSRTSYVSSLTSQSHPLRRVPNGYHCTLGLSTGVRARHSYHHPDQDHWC

Row | SMILES | EC50 [1] [µM] | also measured
1 | CC[C@H](CO)Nc1nc(NC(c2ccccc2)c2ccccc2)c2ncn(C(C)C)c2n1 [Compound 13t, (R)-2-(6-(Benzhydrylamino)-9-isopropyl-9H-purin-2-ylamino)butan-1-ol] | > 100 | –
2 | CC[C@H](CO)Nc1nc(NCc2ccc(-c3ccccc3)cc2)c2ncn(C(C)C)c2n1 [Compound 13s, (R)-2-(6-(Biphenyl-4-ylmethylamino)-9-isopropyl-9H-purin-2-ylamino)butan-1-ol] | > 100 | –
3 | CCCn1cnc2c(NCC3CC3)nc(N[C@H](CC)CO)nc21 [Compound 13g, (R)-2-(6-(Cyclopropylmethylamino)-9-propyl-9H-purin-2-ylamino)butan-1-ol] | > 100 | agonist effect on the Ca^2+ channel tail currents (in words) ([1]; N-type): complete loss of N-type Ca^2+ channel activity
4 | CC[C@H](CO)Nc1nc(NCC2CC2)c2ncn(C(C)C)c2n1 [Compound 13p, (R)-2-(6-(Cyclopropylmethylamino)-9-isopropyl-9H-purin-2-ylamino)butan-1-ol] | > 100 | –
5 | Nc1ccncc1N [DAP, 3,4-diaminopyridine, reference compound] | – | 10th EPP of 50 Hz train as % of the first EPP (short-term plasticity) [2]: ~132%; increase in transmitter release from LEMS model NMJs [2]: ~80%; EPP amplitude ([2]; LEMS model NMJs): 17.94±1.381 mV; quantal content (QC, area of EPP divided by area of mEPP) ([2]; LEMS model NMJs, mean±s.e.m.): 49.0±4.4; serum levels ([3]; clinical trials, 10-20 mg 3 times per day): about 0.5 μM; peak serum levels [3, 5]: 70 to 150 ng/mL; peak serum levels, corresponding concentration [3, 5]: 0.5 to 1.5 µM
6 | CCCn1cnc2c(NCc3ccccc3)nc(N[C@H](CC)CO)nc21 [Compound 13d, (R)-2-(6-(Benzylamino)-9-propyl-9H-purin-2-ylamino)butan-1-ol] | 14.2 | increased Ca^2+ channel agonism vs. (R)-roscovitine ([1]; N-type): ca. 2 fold
7 | Cn1cnc2c(NCc3ccccc3)nc(NCCO)nc21 [olomoucine, reference compound] | – | quantal content (EPP peak amplitude divided by mEPP peak amplitude) [4]: 33.4±11.3; quantal content determined from the area (integral) under EPP and mEPP waveforms [4]: 34.6±11.2; quantal content (EPP peak amplitude divided by mEPP peak amplitude) ([4]; listed as oloumucine): slightly, but significantly smaller; quantal content determined from the area (integral) under EPP and mEPP waveforms ([4]; listed as oloumucine): not significantly different
8 | CCCn1cnc2c(Nc3ccccc3)nc(N[C@H](CC)CO)nc21 [Compound 13e, (R)-2-(6-(Phenylamino)-9-propyl-9H-purin-2-ylamino)butan-1-ol] | > 100 | –
9 | CCCn1cnc2c(NCc3ccc(C(F)(F)F)cc3)nc(N[C@H](CC)CO)nc21 [Compound 13o, (R)-2-(9-Propyl-6-(4-(trifluoromethyl)benzylamino)-9H-purin-2-ylamino)butan-1-ol] | > 100 | –
10 | CC[C@H](CO)Nc1nc(NCc2cccnc2)c2ncn(C)c2n1 [Compound 13n, (R)-2-(9-Methyl-6-(pyridin-3-ylmethylamino)-9H-purin-2-ylamino)butan-1-ol] | > 100 | –
11 | CC[C@H](CO)Nc1nc(NCC2CC2)c2ncn(C)c2n1 [Compound 13m, (R)-2-(6-(Cyclopropylmethylamino)-9-methyl-9H-purin-2-ylamino)butan-1-ol] | > 100 | –
12 | CC[C@H](CO)Nc1nc(NCc2cccnc2)c2ncn(C(C)C)c2n1 [Compound 13r, (R)-2-(9-Isopropyl-6-(pyridin-3-ylmethylamino)-9H-purin-2-ylamino)butan-1-ol] | > 100 | –
13 | CCCn1cnc2c(NCc3cccnc3)nc(N[C@H](CC)CO)nc21 [Compound 13f, (R)-2-(9-Propyl-6-(pyridin-3-ylmethylamino)-9H-purin-2-ylamino)butan-1-ol] | > 100 | –
14 | CCCn1cnc2c(NCCc3ccccc3)nc(N[C@H](CC)CO)nc21 [Compound 13c, (R)-2-(6-(Phenethylamino)-9-propyl-9H-purin-2-ylamino)butan-1-ol] | > 100 | –
15 | CC[C@H](CO)Nc1nc(NCCc2ccccc2)c2ncn(C)c2n1 [Compound 13j, (R)-2-(9-Methyl-6-(phenethylamino)-9H-purin-2-ylamino)butan-1-ol] | > 100 | –
16 | CC[C@H](CO)Nc1nc(NCc2cccc(C(F)(F)F)c2)c2ncn(C(C)C)c2n1 [Compound 13v, (R)-2-(9-Isopropyl-6-(3-(trifluoromethyl)benzylamino)-9H-purin-2-ylamino)butan-1-ol] | > 100 | –
17 | CC[C@H](CO)Nc1nc(NCCc2ccccc2)c2ncn(C(C)C)c2n1 [Compound 13q, (R)-2-(9-Isopropyl-6-(phenethylamino)-9H-purin-2-ylamino)butan-1-ol] | > 100 | –
18 | CCCn1cnc2c(NCc3ccc(-c4ccccc4)cc3)nc(N[C@H](CC)CO)nc21 [Compound 13a, (R)-2-(6-(Biphenyl-4-ylmethylamino)-9-propyl-9H-purin-2-ylamino)butan-1-ol] | > 100 | –
19 | CC[C@H](CO)Nc1nc(NCc2ccc(-c3ccccc3)cc2)c2ncn(C)c2n1 [Compound 13h, (R)-2-(6-(Biphenyl-4-ylmethylamino)-9-methyl-9H-purin-2-ylamino)butan-1-ol] | > 100 | –
20 | CC[C@H](CO)Nc1nc(Nc2ccccc2)c2ncn(C)c2n1 [Compound 13l, (R)-2-(9-Methyl-6-(phenylamino)-9H-purin-2-ylamino)butan-1-ol] | > 100 | –
